The values that follow come from article PMC5865651, “Novel inhibitor candidates of TRPV2 prevent damage of dystrophic myocytes and ameliorate against dilated cardiomyopathy in a hamster model” (Oncotarget, 2018).

Structures are written as SMILES.

In series [1] the target is T1, human TRPV2 (hTRPV2) (Homo sapiens, UniProt Q9Y5S1).
T1 sequence (Q9Y5S1 1-764): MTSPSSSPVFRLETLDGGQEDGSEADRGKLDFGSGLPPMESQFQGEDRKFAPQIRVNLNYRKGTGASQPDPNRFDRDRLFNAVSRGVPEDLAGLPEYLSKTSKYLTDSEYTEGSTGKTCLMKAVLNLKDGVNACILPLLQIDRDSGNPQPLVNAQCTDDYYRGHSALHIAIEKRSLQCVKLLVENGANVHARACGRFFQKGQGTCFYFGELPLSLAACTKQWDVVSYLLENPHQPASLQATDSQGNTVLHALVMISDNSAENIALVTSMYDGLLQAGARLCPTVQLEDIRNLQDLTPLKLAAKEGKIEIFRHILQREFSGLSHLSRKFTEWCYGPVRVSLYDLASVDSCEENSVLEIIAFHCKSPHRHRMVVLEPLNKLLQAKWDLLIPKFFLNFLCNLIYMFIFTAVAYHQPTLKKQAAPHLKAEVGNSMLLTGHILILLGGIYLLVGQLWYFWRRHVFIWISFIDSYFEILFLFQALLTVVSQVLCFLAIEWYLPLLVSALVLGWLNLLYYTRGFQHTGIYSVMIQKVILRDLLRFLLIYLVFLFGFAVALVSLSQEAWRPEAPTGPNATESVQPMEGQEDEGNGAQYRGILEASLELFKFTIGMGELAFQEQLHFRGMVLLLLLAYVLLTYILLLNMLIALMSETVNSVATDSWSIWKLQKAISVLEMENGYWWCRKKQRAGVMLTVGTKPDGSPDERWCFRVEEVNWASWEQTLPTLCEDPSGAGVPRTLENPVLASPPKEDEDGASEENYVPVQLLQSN
The conditions noted are these: cited from earlier work.

Series [2] deals with T2, human Cav1.2/β2/α2δ1 L-type calcium channel (Homo sapiens, UniProt Q13936).
T2 construct: host or cells: CHO cells (purchased recombinant cell line)
Nature of the series: L-type Ca2+ current in human Cav1.2/β2/α2δ1 expressing CHO cells (patch clamp). It is filed as cell-based. The conditions noted are these: CHO cells expressing human Cav1.2/β2/α2δ1 calcium channel, pH 7.4, 15 μM lumin, n = 3, read-out: L-type current, % of control. The method, then: Figure 8 Effect of lumin on the Ca^2+ response and channel activity in HEK293 cells expressing mTRPV2 (A) Inhibition of the 2-APB-induced increase in [Ca^2+]i in HEK293 cells expressing mTRPV2 by lumin. Cells were loaded with fura-2-AM and stimulated with 2-APB (0.3 mM) in the absence or presence of the indicated concentrations of lumin. The fluorescence ratio was measured by a microplate reader and normalized by the maximal value. Data are shown as mean ± SD (n = 5). (B) Lumin blocked the mTRPV2 channel. The current values at −100 mV measured by an every-2-second ramp protocol were plotted. After the current activated by 200 μM 2-APB at pH 6.5 became stable, a mixture of 15 μM lumin and 2-APB was applied to the cells. (C) Effect of lumin on the current-voltage relationship of 2-APB-evoked current. (D) Concentration-dependence of lumin for the inhibition of mTRPV2 current. Data are shown as mean ± SD (n = 3–5) (E) Effect of lumin (15 μM) on L-type Ca^2+ channel activity. The current waveforms of the control cells and the cells 11 minutes after application of 15 μM lumin were superimposed. […]
For the measurement of L-type Ca^2+ currents, human Cav1.2/β2/α2δ1 calcium channel expressing CHO cells were purchased from ChanTest (Cleveland, OH, USA). […] The data were analysed and plotted with Clampfit 9 (Molecular Devices, LLC, Sunnyvale, CA, USA). […]

T2 sequence (Q13936 whole entry): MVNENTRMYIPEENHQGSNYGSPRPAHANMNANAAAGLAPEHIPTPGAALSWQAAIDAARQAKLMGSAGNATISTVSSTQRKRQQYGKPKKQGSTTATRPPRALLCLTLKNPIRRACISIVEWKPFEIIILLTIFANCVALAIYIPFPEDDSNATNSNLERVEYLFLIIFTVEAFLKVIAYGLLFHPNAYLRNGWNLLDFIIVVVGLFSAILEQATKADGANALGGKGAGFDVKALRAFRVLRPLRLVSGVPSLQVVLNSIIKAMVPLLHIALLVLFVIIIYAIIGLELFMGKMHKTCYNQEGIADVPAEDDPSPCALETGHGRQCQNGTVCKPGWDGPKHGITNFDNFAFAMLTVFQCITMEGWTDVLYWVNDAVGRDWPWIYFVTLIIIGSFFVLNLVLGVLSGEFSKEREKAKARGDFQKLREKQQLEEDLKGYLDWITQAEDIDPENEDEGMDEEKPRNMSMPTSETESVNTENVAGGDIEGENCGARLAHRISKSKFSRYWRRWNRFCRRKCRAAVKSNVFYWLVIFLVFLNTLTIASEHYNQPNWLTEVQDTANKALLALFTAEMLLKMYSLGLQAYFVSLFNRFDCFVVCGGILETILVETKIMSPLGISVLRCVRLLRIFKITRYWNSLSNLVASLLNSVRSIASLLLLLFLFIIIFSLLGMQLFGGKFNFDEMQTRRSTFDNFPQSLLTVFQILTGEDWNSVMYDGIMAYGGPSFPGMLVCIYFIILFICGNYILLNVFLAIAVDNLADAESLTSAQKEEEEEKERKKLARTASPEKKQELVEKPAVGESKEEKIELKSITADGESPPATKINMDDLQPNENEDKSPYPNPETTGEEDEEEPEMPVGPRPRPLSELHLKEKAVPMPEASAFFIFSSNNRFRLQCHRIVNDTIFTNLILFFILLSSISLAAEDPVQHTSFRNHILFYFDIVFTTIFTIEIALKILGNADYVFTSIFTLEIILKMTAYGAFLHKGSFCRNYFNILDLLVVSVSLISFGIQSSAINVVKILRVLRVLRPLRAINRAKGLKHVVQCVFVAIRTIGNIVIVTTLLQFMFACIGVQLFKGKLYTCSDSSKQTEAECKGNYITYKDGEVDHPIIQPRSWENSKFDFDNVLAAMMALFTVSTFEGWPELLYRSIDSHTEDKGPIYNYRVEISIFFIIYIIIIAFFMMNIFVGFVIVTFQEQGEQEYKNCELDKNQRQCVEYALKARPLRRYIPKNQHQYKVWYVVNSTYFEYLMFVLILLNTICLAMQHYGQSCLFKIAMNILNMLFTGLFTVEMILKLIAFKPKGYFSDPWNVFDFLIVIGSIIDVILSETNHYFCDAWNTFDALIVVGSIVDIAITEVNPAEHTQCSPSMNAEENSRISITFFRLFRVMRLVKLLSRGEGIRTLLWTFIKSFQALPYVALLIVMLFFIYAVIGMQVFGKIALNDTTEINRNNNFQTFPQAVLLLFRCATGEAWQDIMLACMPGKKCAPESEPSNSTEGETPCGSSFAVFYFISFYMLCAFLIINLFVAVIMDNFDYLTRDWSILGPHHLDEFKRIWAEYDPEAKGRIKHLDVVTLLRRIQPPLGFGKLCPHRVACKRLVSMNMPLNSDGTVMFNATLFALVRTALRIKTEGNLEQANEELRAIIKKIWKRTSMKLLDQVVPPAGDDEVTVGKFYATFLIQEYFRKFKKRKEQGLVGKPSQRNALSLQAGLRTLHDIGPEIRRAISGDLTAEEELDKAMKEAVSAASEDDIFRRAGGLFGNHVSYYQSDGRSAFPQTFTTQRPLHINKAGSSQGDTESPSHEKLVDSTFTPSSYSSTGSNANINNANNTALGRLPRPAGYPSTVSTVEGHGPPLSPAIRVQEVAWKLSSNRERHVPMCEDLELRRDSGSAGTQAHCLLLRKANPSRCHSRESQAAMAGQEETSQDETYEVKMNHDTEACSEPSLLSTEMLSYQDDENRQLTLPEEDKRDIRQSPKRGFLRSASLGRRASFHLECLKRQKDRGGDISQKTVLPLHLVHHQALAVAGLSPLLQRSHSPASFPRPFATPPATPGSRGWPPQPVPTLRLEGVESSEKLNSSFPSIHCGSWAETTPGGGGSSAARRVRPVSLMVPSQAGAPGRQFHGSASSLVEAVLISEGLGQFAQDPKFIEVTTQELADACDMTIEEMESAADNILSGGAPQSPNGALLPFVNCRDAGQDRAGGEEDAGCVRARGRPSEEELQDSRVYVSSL
T2 sequence (Q08289 whole entry partner): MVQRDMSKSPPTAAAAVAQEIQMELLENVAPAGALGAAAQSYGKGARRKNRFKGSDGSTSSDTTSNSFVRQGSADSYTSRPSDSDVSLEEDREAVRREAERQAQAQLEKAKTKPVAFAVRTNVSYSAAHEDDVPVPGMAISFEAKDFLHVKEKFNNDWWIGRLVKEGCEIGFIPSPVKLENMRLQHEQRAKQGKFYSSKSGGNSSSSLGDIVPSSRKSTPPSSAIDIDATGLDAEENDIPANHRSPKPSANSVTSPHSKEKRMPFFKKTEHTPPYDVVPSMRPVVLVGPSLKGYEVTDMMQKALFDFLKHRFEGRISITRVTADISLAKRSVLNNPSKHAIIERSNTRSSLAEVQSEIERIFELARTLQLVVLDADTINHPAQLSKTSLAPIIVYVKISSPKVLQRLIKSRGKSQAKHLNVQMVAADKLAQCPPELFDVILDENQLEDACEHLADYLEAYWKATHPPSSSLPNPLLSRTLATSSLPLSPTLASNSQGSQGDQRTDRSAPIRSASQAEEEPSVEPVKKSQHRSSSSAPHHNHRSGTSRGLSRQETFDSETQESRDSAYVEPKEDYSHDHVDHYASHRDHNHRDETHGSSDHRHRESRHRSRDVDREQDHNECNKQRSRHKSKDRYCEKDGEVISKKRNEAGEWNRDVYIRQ
T2 sequence (P54289 25-956 partner limits assumed): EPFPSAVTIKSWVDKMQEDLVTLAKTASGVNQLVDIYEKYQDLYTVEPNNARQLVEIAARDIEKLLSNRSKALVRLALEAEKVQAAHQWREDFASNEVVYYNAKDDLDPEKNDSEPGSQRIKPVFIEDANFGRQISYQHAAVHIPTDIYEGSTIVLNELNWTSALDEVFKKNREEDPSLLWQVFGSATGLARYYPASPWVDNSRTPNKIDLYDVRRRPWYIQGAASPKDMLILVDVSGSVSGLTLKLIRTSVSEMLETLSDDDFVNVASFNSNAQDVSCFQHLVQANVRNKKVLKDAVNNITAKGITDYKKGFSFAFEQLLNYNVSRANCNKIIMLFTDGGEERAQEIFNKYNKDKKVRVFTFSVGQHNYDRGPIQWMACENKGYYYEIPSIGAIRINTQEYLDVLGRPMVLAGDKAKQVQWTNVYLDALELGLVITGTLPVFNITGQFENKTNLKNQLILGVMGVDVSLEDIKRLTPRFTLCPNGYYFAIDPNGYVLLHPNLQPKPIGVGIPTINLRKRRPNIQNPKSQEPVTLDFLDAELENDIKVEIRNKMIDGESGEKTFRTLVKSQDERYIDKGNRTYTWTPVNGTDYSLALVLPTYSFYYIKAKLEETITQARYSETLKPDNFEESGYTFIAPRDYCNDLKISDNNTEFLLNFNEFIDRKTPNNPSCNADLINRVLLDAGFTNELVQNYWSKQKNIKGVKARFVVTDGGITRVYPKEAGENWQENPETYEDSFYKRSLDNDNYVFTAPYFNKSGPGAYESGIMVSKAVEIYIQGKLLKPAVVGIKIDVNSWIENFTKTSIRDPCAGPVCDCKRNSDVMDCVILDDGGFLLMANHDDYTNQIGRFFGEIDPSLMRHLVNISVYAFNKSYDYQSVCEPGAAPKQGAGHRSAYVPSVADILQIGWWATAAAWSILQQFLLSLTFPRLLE
T2 sequence (P54289 957-1103 partner limits assumed): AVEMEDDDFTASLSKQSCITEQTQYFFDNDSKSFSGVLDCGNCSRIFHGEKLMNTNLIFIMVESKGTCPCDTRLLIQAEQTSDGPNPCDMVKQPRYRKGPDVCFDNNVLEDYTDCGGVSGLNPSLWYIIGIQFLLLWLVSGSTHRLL

As to `NCCOB(c1ccccc1)c1ccccc1` [2-APB, 2-aminoethoxydiphenylborate], in series [1], the “response of hTRPV2 to 2-APB” value is given as “unresponsive”.

For the compound `CCN1C=CC(=CC=C(C=Cc2cc[n+](CC)c3ccccc23)c2cc[n+](CC)c3ccccc23)c2ccccc21.[I-].[I-]` [lumin, 4,4′-[3-[2-[1-ethyl-4(1H)-quinolinylidene]ethylidene]-1-propene-1,3-diyl]bis(1-ethylquinolinium) diiodide], the activity at 11 min, 15 μM in series [2] amounted to 96.6 ± 8.7%.
